The subject of assay [1] is atherosclerotic plaque. As to conditions: infusion, ApoE−/−xCD4dnTβRII mice, treated for four weeks; cited from earlier work.
Assay [2] concerns atherosclerotic plaque. As to conditions: oral dosing, apoE/LDL-R double knockout mice, high-fat diet from 2 to 6 months of age; cited from earlier work.
Assay [3] relates to biomarkers for myocardial infarction risk. The settings on record: clinical trial; cited from earlier work.
In assay [4] the test system is synthesis of LTB4 in human whole blood. The assay can be described thus: human whole blood LTB4 production inhibition assay. Format: cell-based. The settings on record: heparinized human whole blood, calcimycin 20 μM stimulation, plasma LTB4; read-out: hWB IC50. As to the method: Compounds are additionally tested in a human whole blood assay to determine their ability to inhibit the synthesis of LTB4 in a cellular system. Compounds are combined with heparinized human whole blood and incubated for 15 minutes at 37° C. Calcimycin (20 μM final, prepared in phosphate-buffered saline, pH 7.4) is then added and the mixture is incubated for another 30 minutes at 37° C. The samples are centrifuged for 5 min at low speed (1500×g) and the plasma layer is removed. Plasma LTB4 concentrations are then measured using an antibody-based homogenous time-resolved fluorescence method (CisBio, Bedford, Mass.).

In assay [5] the target is recombinant human FLAP protein (Homo sapiens (Human), UniProt P20292). The assay can be described thus: FLAP binding assay (Scintillation Proximity Assay, displacement of iodinated FLAP inhibitor). The settings on record: displacement of [125I]L-691,831; membranes of sf9 cells expressing recombinant human FLAP; read-out: hFLAP binding IC50. As to the method: Compounds are assessed for the ability to bind to FLAP in a binding assay that measures compound-specific displacement of an iodinated (^125I) FLAP inhibitor via a Scintillation Proximity Assay format (adapted from S. Charleson et al., Mol. Pharmacol., 1992, 41, 873-879).
recombinant human FLAP protein, sequence (P20292 whole entry): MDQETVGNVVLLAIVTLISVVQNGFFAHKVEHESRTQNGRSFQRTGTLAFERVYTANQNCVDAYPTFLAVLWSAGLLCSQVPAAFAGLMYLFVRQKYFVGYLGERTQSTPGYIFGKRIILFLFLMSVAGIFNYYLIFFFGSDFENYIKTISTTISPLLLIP
Cell pellets produced from sf9 insect cells expressing recombinant human FLAP protein are resuspended in buffer A [15 mM Tris-HCl (pH 7.5), 2 mM MgCl2, 0.3 mM EDTA, 1 mM PMSF]. The cells are lysed with a Dounce homogenizer and the material is centrifuged at 10,000×g for 10 minutes. The supernatant is then collected and centrifuged at 100,000×g for 60 minutes. To prepare membrane protein for an assay, an aliquot of the 100,000×g pellet is resuspended in 1 ml of buffer A, Dounce homogenized, and finally subjected to polytron mixing (30 seconds). Membrane protein (25 μl, 5 μg) is mixed with WGA SPA beads (Amersham) and stirred for 1 h. […] (final concentrations: beads, 200 μg/well; protein, 5 μg/well; [^125I] probe, 0 08 nM/well (17 nCi/well). The plates are shaken for 2 h before reading on a Microbeta plate reader. Non-specific binding is determined by the addition of 10 μM cold L-691,831 compound.
(In general: In a scintillation proximity assay essentially only radioactivity close to the scintillant gives light.)

The subject of another assay is proteinuria. The settings on record: clinical trial, human glomerulonephritis; cited from earlier work.

Results on seven compounds are retold here after patent US8772304B2, “Benzimidazole inhibitors of leukotriene production” (Boehringer Ingelheim International GmbH, priority 2010, dated 2014).

Structures are written as SMILES. pIC50: −log10 of the molar value.

For `CC(C)c1ccc2c(c1)c(SC(C)(C)C)c(CC(C)(C)C(=O)O)n2Cc1ccc(Cl)cc1` [MK-886], in the assay with atherosclerotic plaque [1], the “decrease in plaque area in the aortic root” value is listed as roughly 40%. Also, in the assay with atherosclerotic plaque [2], the “decrease in plaque coverage in the aorta” value is recorded as 56% and the “decrease in plaque coverage in the aortic root” value was 43%.
In the case of `O=C(O)[C@@H](c1ccc(OCc2ccc3ccccc3n2)cc1)C1CCCC1` [DG-031], the “effect on biomarkers for myocardial infarction risk” value in assay [3] is reported as “dose-dependent suppression of several biomarkers”.
In general, pIC50 refers to the IC50 on a negative log10 scale, so that one unit is a factor of ten. On to `COC(=O)c1cccnc1-c1nc2cc(-c3cnc(N)nc3)ccc2n1C(C)(C)C` [Example 7, 2-[5-(2-Amino-pyrimidin-5-yl)-1-tert-butyl-1H-benzimidazol-2-yl]-nicotinic acid methyl esler], for which the pIC50 in assay [4] is 5.51; in assay [5], 6.27.
Take `COc1cc(-c2nc3cc(-c4cnc(N)nc4)ccc3n2C(C)(C)C)c(F)cn1` [Example 17, 5-[1-tert-Butyl-2-(5-fluoro-2-methoxy-pyridin-4-yl)-1H-benzimidazol-5-yl]-pyrimidin-2-ylamine]: the pIC50 in assay [4] and in assay [5] was 7.24 throughout.
On to `CNC(=O)c1ccc(C#N)nc1-c1nc2cc(-c3cnc(N)nc3)ccc2n1C(C)(C)C` [Example 10, 2-[5-(2-Amino-pyrimidin-5-yl)-1-tert-butyl-1H-benzimidazol-2-yl]-6-cyano-N-methyl-nicotinamide], for which the pIC50 in assay [4] was 6.37; in assay [5] it was 6.86.
For `CC(C)(C)n1c(-c2ccncc2)nc2cc(-c3cnc(N)nc3)ccc21` [Example 18, 5-(1-tert-Butyl-2-pyridin-4-yl-1H-benzimidazol-5-yl)-pyrimidin-2-ylamine], in that order: 6.35 and 6.35.
Take `CC(C)(C)Sc1c(CC(C)(C)C(=O)O)n(Cc2ccc(Cl)cc2)c2ccc(OCc3ccc4ccccc4n3)cc12` [MK-591]: the effect on proteinuria entry in the assay with proteinuria is “reduce proteinuria”.
